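Five compound concentrations were applied to cells in 96-well plates for 48 hours; endpoints were derived by simple linear interpolation of the resulting dose-response curve. GI50 is the concentration that inhibits growth by half. At the TGI there is no net growth.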
Tests used:
Assay in all cases: growth of human tumour cells (NCI), 48 h
HT29 colon = system: HT29 colon
M14 melanoma = system: M14 melanoma
786-0 renal = system: 786-0 renal
NCI/ADR-RES ovarian = system: NCI/ADR-RES ovarian
SR leukemia = system: SR leukemia
SK-MEL-28 melanoma = system: SK-MEL-28 melanoma
MDA-MB-435 = system: MDA-MB-435
SF-268 CNS = system: SF-268 CNS
HOP-62 NSCLC = system: HOP-62 NSCLC
KM12 colon = system: KM12 colon
EKVX NSCLC = system: EKVX NSCLC
CCRF-CEM leukemia = system: CCRF-CEM leukemia
PC-3 prostate = system: PC-3 prostate
T-47D breast = system: T-47D breast
SNB-75 CNS = system: SNB-75 CNS
LOX IMVI melanoma = system: LOX IMVI melanoma
UACC-62 melanoma = system: UACC-62 melanoma
HOP-92 NSCLC = system: HOP-92 NSCLC
SN12C renal = system: SN12C renal
HS 578T breast = system: HS 578T breast
A549 NSCLC = system: A549 NSCLC
IGROV1 ovarian = system: IGROV1 ovarian
SF-539 CNS = system: SF-539 CNS
OVCAR-4 ovarian = system: OVCAR-4 ovarian
MOLT-4 leukemia = system: MOLT-4 leukemia
RXF 393 renal = system: RXF 393 renal
CAKI-1 renal = system: CAKI-1 renal
SF-295 CNS = system: SF-295 CNS

COc1ccc(-c2nnc(SCc3ccc(O)c4ncccc34)n2-c2ccccc2)cc1 was tested, and the GI50 (HT29 colon) was 4.9 µM, the TGI (HT29 colon) was greater than 100 µM and the GI50 (M14 melanoma) was 0.451 µM. For the same compound, the TGI (M14 melanoma) was 2.5 µM, the GI50 (786-0 renal) was 0.891 µM and the TGI (786-0 renal) was 9.81 µM. The GI50 (NCI/ADR-RES ovarian) was 0.29 µM, the TGI (NCI/ADR-RES ovarian) was 5.7 µM and the GI50 (SR leukemia) was 0.371 µM. For the same compound, the TGI (SR leukemia) was greater than 100 µM, the GI50 (SK-MEL-28 melanoma) was 0.726 µM and the TGI (SK-MEL-28 melanoma) was 31.3 µM. For the same compound, the GI50 (MDA-MB-435) was 0.468 µM, the TGI (MDA-MB-435) was greater than 100 µM and the GI50 (SF-268 CNS) was 0.605 µM. For the same compound, the TGI (SF-268 CNS) was 56.6 µM, the GI50 (HOP-62 NSCLC) was 1 µM and the TGI (HOP-62 NSCLC) was 16.7 µM. It also gave a GI50 (KM12 colon) of 0.619 µM, a TGI (KM12 colon) greater than 89 µM and a GI50 (EKVX NSCLC) of 1.05 µM. It also gave a TGI (EKVX NSCLC) of 10.3 µM, a GI50 (CCRF-CEM leukemia) of 0.424 µM and a TGI (CCRF-CEM leukemia) greater than 100 µM. The GI50 (PC-3 prostate) was 0.526 µM, the TGI (PC-3 prostate) was 28.3 µM and the GI50 (T-47D breast) was 0.929 µM. The TGI (T-47D breast) was 4.2 µM, the GI50 (SNB-75 CNS) was 0.951 µM and the TGI (SNB-75 CNS) was 6.13 µM. For the same compound, the GI50 (LOX IMVI melanoma) was 0.478 µM, the TGI (LOX IMVI melanoma) was 2.62 µM and the GI50 (UACC-62 melanoma) was 1.31 µM. The TGI (UACC-62 melanoma) was 4.98 µM, the GI50 (HOP-92 NSCLC) was 0.231 µM and the TGI (HOP-92 NSCLC) was 0.818 µM. The GI50 (SN12C renal) was 0.468 µM, the TGI (SN12C renal) was greater than 100 µM and the GI50 (HS 578T breast) was 0.491 µM. It also gave a TGI (HS 578T breast) of 10 µM, a GI50 (A549 NSCLC) of 0.986 µM and a TGI (A549 NSCLC) greater than 60 µM. The GI50 (IGROV1 ovarian) was 0.892 µM, the TGI (IGROV1 ovarian) was 25 µM and the GI50 (SF-539 CNS) was 0.605 µM. It also gave a TGI (SF-539 CNS) of 5.04 µM, a GI50 (OVCAR-4 ovarian) of 0.739 µM and a TGI (OVCAR-4 ovarian) greater than 100 µM. The GI50 (MOLT-4 leukemia) was 0.508 µM, the TGI (MOLT-4 leukemia) was greater than 100 µM and the GI50 (RXF 393 renal) was 0.915 µM. The TGI (RXF 393 renal) was 11.1 µM, the GI50 (CAKI-1 renal) was 0.637 µM and the TGI (CAKI-1 renal) was 4.29 µM. It also gave a GI50 (SF-295 CNS) of 0.449 µM.
